Assay results from patent publication US20120115727A1, “CONTROL OF PHENOXYALKANOIC ACID HERBICIDE-RESISTANT WEEDS WITH 4-AMINO-3-CHLORO-6-(4-CHLORO-2-FLUORO-3-METHOXYPHENYL)PYRIDINE-2-CARBOXYLIC ACID AND ITS SALTS OR ESTERS” (DOW AGROSCIENCES LLC, priority 2010, published 2012).

Experiments:
Test in all cases: Postemergence herbicidal activity, greenhouse, visual injury
Format in all cases: in vivo, Papaver rhoeas
Settings in all cases: 20-22 d after application
[1] = system: PAPRH-Susceptible (susceptible corn poppy)
Description: (§1) Seeds of the phenoxyalkanoic acid herbicide-resistant and susceptible plant species were planted in Sun Gro MetroMix® 306 planting mixture, which typically has a pH of 6.0 to 6.8 and an organic matter content of about 30 percent, in plastic pots with a surface area of 103.2 square centimeters (cm^2). When required to ensure good germination and healthy plants, a fungicide treatment and/or other chemical or physical treatment was applied. The plants were grown for 7-36 days (d) in a greenhouse with an approximate 14-hour (h) photo-period which was maintained at about 18° C. during the day and 17° C. during the night. Nutrients and water were added on a regular basis and supplemental lighting was provided with overhead metal halide 1000-Watt lamps as necessary. The plants were employed for testing when they reached the second or third true leaf stage.
(§2) Treatments consisted of the acid or esters of 4-amino-3-chloro-6-(4-chloro-2-fluoro-3-methoxyphenyl)pyridine-2-carboxylic acid (Compound I) and 2,4-D, mecoprop and 2-(4-chloro-2-methyl-phenoxy)acetic acid (MCPA) alone. Weighed amounts of the herbicides were dissolved in a volume of 97:3 volume-per-volume (v/v) acetone/dimethylsulfoxide (DMSO) to obtain concentrated solutions. […] The concentrated solutions of the test compound were diluted with the addition of an aqueous mixture containing acetone, water, isopropyl alcohol, DMSO, Agri-Dex crop oil concentrate, and Triton® X-77 surfactant in a 64.7:26.0:6.7:2.0:0.7:0.01 v/v ratio. Test compounds were diluted to the appropriate application rate with a dilution solution which was prepared by mixing the appropriate volume of 97:3 v/v acetone/DMSO and the appropriate volume of an aqueous mixture containing acetone, water, isopropyl alcohol, DMSO, Agri-Dex crop oil concentrate, and Triton® X-77 surfactant in a 64.7:26.0:6.7:2.0:0.7:0.01 v/v ratio. Compound requirements are based upon a 12 mL application volume at a rate of 187 liters per hectare (L/ha). Spray solutions of 2,4-D, mecoprop and MCPA were prepared by diluting an aliquot of the concentrated herbicide with an aqueous mixture containing 1.25% v/v Agri-Dex. 2,4-D, mecoprop and MCPA were applied at 1×, 2× and 4× of the recommended application rate.
(§3) Formulated compounds were applied to the plant material with an overhead Mandel track sprayer equipped with 8002E nozzles calibrated to deliver 187 L/ha over an application area of 0.503 square meters (m^2) at a spray height of 18 inches (43 centimeters (cm)) above average plant canopy. Control plants were sprayed in the same manner with the solvent blank.
(§4) The treated plants and control plants were placed in a greenhouse as described above and watered by sub-irrigation to prevent wash-off of the test compounds. After 20-22 d, the condition of the test plants as compared with that of the control plants was determined visually and scored on a scale of 0 to 100 percent where 0 corresponds to no injury and 100 corresponds to complete kill.

[2] = system: PAPRH-S4F00101 (phenoxyalkanoic acid herbicide-resistant corn poppy)
Description: as §1, §2, §3, §4

[3] = system: PAPRH-S2F01502 (phenoxyalkanoic acid herbicide-resistant corn poppy)
Description: as §1, §2, §3, §4

[4] = system: PAPRH-S1F00101 (phenoxyalkanoic acid herbicide-resistant corn poppy)
Description: as §1, §2, §3, §4

[5] = system: PAPRH-S4F00103 (phenoxyalkanoic acid herbicide-resistant corn poppy)
Description: as §1, §2, §3, §4

SMILES | Activity (visual injury, 0 = no injury, 100 = complete kill) PAPRH-Susceptible ([1]; 800 g ae/ha) [%] | Activity (visual injury, 0 = no injury, 100 = complete kill) PAPRH-Susceptible ([1]; 1600 g ae/ha) [%] | Activity (visual injury, 0 = no injury, 100 = complete kill) PAPRH-Susceptible ([1]; 3200 g ae/ha) [%] | Activity (visual injury, 0 = no injury, 100 = complete kill) PAPRH-S4F00101 ([2]; 800 g ae/ha) [%] | Activity (visual injury, 0 = no injury, 100 = complete kill) PAPRH-S4F00101 ([2]; 1600 g ae/ha) [%] | Activity (visual injury, 0 = no injury, 100 = complete kill) PAPRH-S4F00101 ([2]; 3200 g ae/ha) [%] | Activity (visual injury, 0 = no injury, 100 = complete kill) PAPRH-S2F01502 ([3]; 800 g ae/ha) [%] | Activity (visual injury, 0 = no injury, 100 = complete kill) PAPRH-S2F01502 ([3]; 1600 g ae/ha) [%] | Activity (visual injury, 0 = no injury, 100 = complete kill) PAPRH-S2F01502 ([3]; 3200 g ae/ha) [%] | Activity (visual injury, 0 = no injury, 100 = complete kill) PAPRH-S1F00101 ([4]; 800 g ae/ha) [%] | Activity (visual injury, 0 = no injury, 100 = complete kill) PAPRH-S1F00101 ([4]; 1600 g ae/ha) [%] | Activity (visual injury, 0 = no injury, 100 = complete kill) PAPRH-S1F00101 ([4]; 3200 g ae/ha) [%] | Activity (visual injury, 0 = no injury, 100 = complete kill) PAPRH-S4F00103 ([5]; 800 g ae/ha) [%] | Activity (visual injury, 0 = no injury, 100 = complete kill) PAPRH-S4F00103 ([5]; 1600 g ae/ha) [%] | Activity (visual injury, 0 = no injury, 100 = complete kill) PAPRH-S4F00103 ([5]; 3200 g ae/ha) [%] | other results
O=C(O)COc1ccc(Cl)cc1Cl [2,4-D, (2,4-dichlorophenoxy)acetic acid] | 85 | 94 | 99 | 22 | 42 | 33 | 15 | 53 | 51 | 21 | 16 | 50 | 21 | 19 | 59 | –
COc1c(Cl)ccc(-c2cc(N)c(Cl)c(C(=O)O)n2)c1F [Compound I, 4-amino-3-chloro-6-(4-chloro-2-fluoro-3-methoxyphenyl)pyridine-2-carboxylic acid] | – | – | – | – | – | – | – | – | – | – | – | – | – | – | – | Activity (visual injury, 0 = no injury, 100 = complete kill) PAPRH-Susceptible ([1]; 7.5 g ae/ha): 95%; Activity (visual injury, 0 = no injury, 100 = complete kill) PAPRH-Susceptible ([1]; 10 g ae/ha): 97%; Activity (visual injury, 0 = no injury, 100 = complete kill) PAPRH-S4F00101 ([2]; 7.5 g ae/ha): 88%; Activity (visual injury, 0 = no injury, 100 = complete kill) PAPRH-S4F00101 ([2]; 10 g ae/ha): 94%; Activity (visual injury, 0 = no injury, 100 = complete kill) PAPRH-S2F01502 ([3]; 7.5 g ae/ha): 93%; Activity (visual injury, 0 = no injury, 100 = complete kill) PAPRH-S2F01502 ([3]; 10 g ae/ha): 94%; Activity (visual injury, 0 = no injury, 100 = complete kill) PAPRH-S1F00101 ([4]; 7.5 g ae/ha): 90%; Activity (visual injury, 0 = no injury, 100 = complete kill) PAPRH-S1F00101 ([4]; 10 g ae/ha): 90%; Activity (visual injury, 0 = no injury, 100 = complete kill) PAPRH-S4F00103 ([5]; 7.5 g ae/ha): 78%; Activity (visual injury, 0 = no injury, 100 = complete kill) PAPRH-S4F00103 ([5]; 10 g ae/ha): 95%
Cc1cc(Cl)ccc1OCC(=O)O [MCPA, 2-(4-chloro-2-methyl-phenoxy)acetic acid] | 70 | 89 | 100 | 28 | 37 | 60 | 28 | 14 | 58 | 14 | 23 | 57 | 23 | 40 | 57 | –
